pEC50, pIC50: −log10 of the molar value.
Legend:
[1] = test system: yeast thioredoxin (Trx)/yeast Trx reductase (TR); experiment: Peroxidase activity assay (H2O2 reduction, NADPH oxidation); assay type: biochemical; conditions: 50 μM test compound, 3 μM yeast Trx, 1.5 μM yeast TR, 250 μM NADPH, 1.2 mM H2O2, 30° C.; NADPH oxidized per minute
How it was run: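 Buffer: 50 mM HEPES pH 7.0, 1 mM EDTA, 250 μM NADPH, 3 μM yeast Trx, 1.5 μM yeast TR, 50 μM test compound; reaction started with 1.2 mM H2O2. A340 decrease followed at 30° C for 12 min. Initial rate is NADPH oxidized per minute, taken from the linear slope.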

[2] = test system: Tyr 1175 phosphorylation of VEGF receptor-2 (VEGFR2) in HAEC; experiment: Immunoblot of VEGF-mediated signaling in PrxII knock-down HAEC; assay type: cell-based, human; conditions: for Effect on phosphorylation of Tyr 1175 on VEGFR2: HAECs depleted of PrxII expression, FIG. 5
Protocol: Cells were quickly washed in ice-cold phosphate-buffered saline (PBS) and lysed in extraction buffer containing 20 mM Hepes (pH 7.0), 1% Triton X-100, 150 mM NaCl, 10% glycerol, 1 mM EDTA, 2 mM EGTA, and 1 mM DTT, 5 mM Na3VO4, 5 mM NaF, 1 mM AEBSF, aprotinin (5 μg/mL), and leupeptin (5 μg/mL). After cen-trifugation at 12,000×g, the clarified cell extracts were used for immunoblotting. For re-blotting, the immunoblots were retrieved in a solution of 67 mM Tris (pH 6.7), 2% SDS, and 100 mM 2-mercaptoethanol at 60° C. for 30 min to remove antibodies and rinsed three times with a Tris-buffered saline (TBS) solution containing 1% Triton X-100. The retrieved membranes were subjected to new immunoblotting.
In human aortic endothelial cell (HAEC) and human pulmonary artery endothelial cell (PAEC) in which PrxII was knocked out by transfecting the PrxII siRNA, the ability of test compounds to replace the cellular function of PrxII was evaluated. That is, the efficacy of the new compounds was verified in terms of signaling pathways induced by VEGF that regulates the growth and migration of vascular endothelial cells in the aorta and pulmonary artery. Activation of VEGF-induced signaling pathway was analyzed by an immunoblot method using an antibody that specifically recognizes phosphorylation of Tyr 1175, which is a major phosphorylation site on VEGF receptor-2 (VEGFR2).

[3] = test system: human aortic smooth muscle cell (HASMC); experiment: PDGF-induced proliferation assay, HASMC (PrxII siRNA); assay type: cell-based; conditions: for Degree of HASMC proliferation: PDGF-BB 25 ng/mL, percent of untreated control; for pIC50: Homo sapiens, HASMC, 50% growth inhibition, PDGF-stimulated
Protocol: (§1) HASMCs and PASMCs were transfected with a PrxII-specific siRNA using RNAi MAX transfection reagent according to manufacturer's protocol. After 24 hours, transfected cells (3,000 cells/well) were seeded in a 96-well culture plate. At 12 h after seeding, cells were serum-starved for additional 18 h in SmBM basal medium containing 0.5% FBS. Test compounds were serially diluted with the same basal medium containing 0.5% FBS, added to the cells ([…]), and incubated for 2 h. After treatment, cells were placed in fresh SmBM medium containing 0.5% FBS and PDGF-BB (25 ng/mL) for growth factor stimulation and further cultured for 24 h.
(§2) The degree of cell proliferation was measured using the Cell Titer-GLO kit ([…]). Data are the percent of luminescence intensity averaged from three replicate wells versus that of untreated control group.
In human aortic smooth muscle cell (HASMC) and human pulmonary artery smooth muscle cell (PASMC) in which PrxII was knocked out by transfecting the PrxII siRNA, the ability of test compounds to inhibit the PDGF-induced proliferation of vascular smooth muscle cells was evaluated. In Table 6, the degree of proliferation in the compound-treated groups is expressed as percent of the degree of proliferation in untreated control group. The concentrations of test compounds corresponding to 50% growth inhibition (IC50) is also listed.

[4] = test system: human aortic endothelial cell (HAEC); experiment: VEGF-induced proliferation assay, HAEC (PrxII siRNA); assay type: cell-based; conditions: for Degree of HAEC proliferation: VEGF-A 25 ng/mL, percent of untreated control; for pEC50: Homo sapiens, Endothelial cell, effective concentration increasing cell proliferation by 50%, VEGF-stimulated
Protocol: as §1, with “HAECs” for “HASMCs”, “PAECs” for “PASMCs”, “EBM” for “SmBM”, “VEGF-A” for “PDGF-BB”
as §2
(§3) In human aortic endothelial cell (HAEC) and human pulmonary artery endothelial cell (PAEC) in which PrxII was knocked out by transfecting the PrxII siRNA, the ability of test compounds to augment the VEGF-induced proliferation of vascular endothelial cells was evaluated. In Table 7, the degree of proliferation in the compound-treated groups is expressed as percent of the degree of proliferation in untreated control group. The effective concentrations of test compounds increasing cell proliferation by 50% (EC50) is also listed.

[5] = test system: human pulmonary artery endothelial cell (PAEC); experiment: VEGF-induced proliferation assay, PAEC (PrxII siRNA); assay type: cell-based; conditions: for Degree of PAEC proliferation: VEGF-A 25 ng/mL, percent of untreated control; for pEC50: Homo sapiens, Endothelial cell, effective concentration increasing cell proliferation by 50%, VEGF-stimulated
Protocol: as §1, with “HAECs” for “HASMCs”, “PAECs” for “PASMCs”, “EBM” for “SmBM”, “VEGF-A” for “PDGF-BB”
as §2, §3

[6] = in vitro

SMILES | Peroxidase activity for H2O2 reduction [1] [nmol/min] | Degree of HASMC proliferation ([3]; 2.5 nM) [%] | Degree of HASMC proliferation ([3]; 5 nM) [%] | Degree of HASMC proliferation ([3]; 10 nM) [%] | Degree of HASMC proliferation ([3]; 25 nM) [%] | pIC50 [3] | Degree of HAEC proliferation ([4]; 2.5 nM) [%] | Degree of HAEC proliferation ([4]; 5 nM) [%] | Degree of HAEC proliferation ([4]; 10 nM) [%] | Degree of HAEC proliferation ([4]; 25 nM) [%] | Degree of HAEC proliferation ([4]; 50 nM) [%] | Degree of HAEC proliferation ([4]; 100 nM) [%] | pEC50 [4] | Degree of PAEC proliferation ([5]; 2.5 nM) [%] | Degree of PAEC proliferation ([5]; 5 nM) [%] | Degree of PAEC proliferation ([5]; 10 nM) [%] | Degree of PAEC proliferation ([5]; 25 nM) [%] | Degree of PAEC proliferation ([5]; 50 nM) [%] | Degree of PAEC proliferation ([5]; 100 nM) [%] | pEC50 [5] | further results
CN1C(=O)C2(C)SSCC1C(=O)N2C (stereo not drawn) [Compound 1, 1,6,8-trimethyl-2,3-dithia-6,8-diazabicyclo[3.2.2]nonane-7,9-dione] | 4.92 | 70.0 | 43.9 | 17.1 | 1.5 | 8.38 | 113.8 | 143.7 | 162.9 | 187.8 | 164.7 | 170.2 | 8.31 | 104.7 | 120.0 | 143.8 | 164.3 | 158.8 | 145.5 | 8.02 | Effect on phosphorylation of Tyr 1175 on VEGFR2 [2]: strongly abolish the phosphorylation; Concentrations at which phosphorylation of Tyr 1175 on VEGFR2 is significantly reduced ([2]; HAECs, PrxII knock-down, FIG. 4): above 2.5 nM; CC50 [6]: 230000 nM
O=C1C2CSSC3(COCCN13)C(=O)N2Cc1ccccc1 (stereo not drawn) [Compound 8, 12-benzyltetrahydro-5H,10H-4,10a-(epiminomethano)[1,4]oxazino[3,4-c][1,2,4]dithia zepine-5,11-dione] | 4.91 | 75.1 | 40.1 | 46.9 | 30.2 | 8.19 | 107.3 | 147.3 | 186.3 | 204.8 | 157.0 | 161.6 | 8.30 | 108.5 | 124.9 | 143.4 | 164.8 | 158.1 | 144.0 | 8.29 | CC50 [6]: 312000 nM
CCN1C(=O)C2(C)SSCC1C(=O)N2CC (stereo not drawn) [Compound 20, 6,8-diethyl-1-methyl-2,3-dithia-6,8-diazabicyclo[3.2.2]nonane-7,9-dione] | 4.78 | 85.8 | 58.7 | 34.9 | 12.3 | 8.17 | 116.4 | 120.3 | 136.3 | 155.9 | 169.5 | 187.6 | 7.99 | 109.2 | 124.3 | 133.5 | 166.5 | 180.9 | 180.4 | 7.99 | Effect on phosphorylation of Tyr 1175 on VEGFR2 [2]: strongly abolish the phosphorylation
CN1C(=O)C2CSSC1(C)C(=O)N2Cc1ccc2ccccc2n1 (stereo not drawn) [Compound 5, 1,8-dimethyl-6-(quinolin-2-ylmethyl)-2,3-dithia-6,8-diazabicyclo[3.2.2]nonane-7,9-dione] | 4.80 | 62.3 | 52.4 | 36.9 | 9.7 | 8.31 | 112.2 | 129.7 | 165.6 | 191.6 | 172.7 | 180.1 | 8.27 | 106.1 | 129.7 | 152.3 | 165.6 | 167.7 | 147.4 | 8.30 | Effect on phosphorylation of Tyr 1175 on VEGFR2 [2]: strongly abolish the phosphorylation; CC50 [6]: > 500000 nM

Reference: patent US20260008784A1 (VASTHERA CO., LTD., priority 2022, published 2026)
